# Reference: US20160238590A1, “COMPOSITIONS AND METHODS RELATED TO OAT SENSITIVITY” (IMMUSANT, INC., priority 2013, published 2016)
# Tests used:
# Format in all cases: cell-based, human
# Patient 14 TCC-01 = experiment: IFN-γ ELISpot with T cell clone; conditions: TCC Patient 14 TCC-01 (Table 5); mean no antigen 11.3, high background, SFU >25 considered as positive responses
# Protocol: (§1) Peripheral blood mononuclear cells (PBMC) were isolated from heparinized whole blood using Ficoll-Paque™ Plus density-gradient centrifugation (GE Healthcare). IFN-γ ELISpot (Mabtech) was set up as previously described^8.
# (§2) Isolation of TCC from CD patients was carried out as previously described^8. Briefly, CFSE-labeled PBMC were incubated with antigen for 7 days in IMDM supplemented with 5% heat-inactivated pooled human serum (PHS), 2 mM GlutaMAX™, 100 μM MEM non-essential amino acids (both from Gibco, Invitrogen), and 50 μM 2-mercaptoethanol (Sigma). Proliferated cells were single-cell sorted into 96-well plates containing IL-2, IL-4, anti-CD3 mAb, irradiated feeder cells (allogeneic PBMC and JY-EBV). TCC were expanded and maintained in IL-2 and IL-4 and tested for specificity by ELISpot with irradiated HLA-matched PBMC as antigen-presenting cells. Expanded clones were tested for HLA-DQ restriction, TCR Vbeta usage, and with lysine scans to work out minimal epitopes. See Table 1 below for TCC and epitope information.
# Patient 2 TCC-01 = experiment: IFN-γ ELISpot with T cell clone; conditions: TCC Patient 2 TCC-01 (Table 5); mean no antigen 1.1
# Protocol: as §1, §2
# Patient 6 TCC-01 = experiment: IFN-γ ELISpot with T cell clone; conditions: TCC Patient 6 TCC-01 (Table 5); mean no antigen 2
# Protocol: as §1, §2
# PBMC [1] = experiment: IFN-γ ELISpot on PBMC of CD patients after 3-day barley challenge; conditions: after barley challenge
# Excerpt: (§3) Australian Caucasian HLA-DQ2.5^+ and/or HLA-DQ8^+ CD subjects were recruited by advertisement in the Coeliac Society of Victoria newsletter and all had biopsy-proven CD conforming to ESPGHAN criteria. Patients had been on strict gluten free diet for at least 4 weeks prior to commencing grain challenge. Patients underwent 3-day grain challenge with oats, barley, or combined wheat, barley, and rye muffins, and 6 days after commencement, blood was collected. Day 0 responses were not observed in the selection of patients tested, as described previously^8.
# (§4) Oats challenge consisted of 100 g dry weight daily of one of three commercial brands of oats: one not tested for wheat contamination (Uncle Toby's; Oats #1), and two shown by R5 ELISA to contain less than 20 ppm wheat gluten (Tilquhilie Pudding; Oats #2 and Freedom Food; Oats #3). Barley challenge consisted of pearl barley (Ward McKenzie) cooked into a risotto (150 g dry weight daily) and the wheat challenge consisted of four 50 g slices of wheat bread daily (Baker's Delight white loaf cut to toasting thickness). The combined wheat, barley, and rye challenge consisted of muffins baked with wheat flour (White Wings), barley flour (Four Leaf Milling), and rye flour (Four Leaf Milling; 22-25 g dry weight each daily). A symptom diary based on a […] Likert scale was completed by participants daily from baseline until day 6.
# (§5) Two avenin peptide libraries were utilized for epitope screening. These were designed using avenin sequences from GenBank and a customized algorithm, as previously described^9. The initial library consisted of 199 screening-grade 20 mers including all possible 12 mers (Mimotopes). This library was screened with and without tTG pre-treatment. The second library consisted of additional avenin sequences that were synthesized with glutamate substitution at sites predicted to be deamidated by published algorithms^10, 11 removing the requirement for tTG treatment. This library contained 369 screening-grade 20 mers, including all possible 12 mers (Pepscan). The second round avenin library contained wild-type and deamidated versions of the most immunogenic sequences (25 high quality 16 mers from Mimotopes). High quality peptides containing previously described immunogenic sequences from wheat, barley, and rye were used to test for cross-reactivity^8 (Pepscan). High quality hordein and avenin peptides for TCC testing and biochemical studies were ordered from Pepscan, Mimotopes, or GL Biochem.
# as §1
# PBMC [2] = experiment: IFN-γ ELISpot on PBMC of CD patients on day 6 after 3-day oats challenge
# Excerpt: as §3, §4, §5, §1
# [3] = patient P2, peptide 100 μg/ml, after 3-day oats challenge
sequence,measurement,setting,value
"FPEQPVPEQPQPYP [barley peptide, 1103203B (30-43) [Q32 to E, Q37 to E]]",IFN-γ ELISpot response (raw SFU),Patient 14 TCC-01,78 SFU
same,IFN-γ ELISpot response (raw SFU),Patient 2 TCC-01,2 SFU
same,IFN-γ ELISpot response (raw SFU),Patient 6 TCC-01,99 SFU
PSEQYQPYPEQEQPILQQEE [avenin library peptide],IFN-γ ELISpot response (raw SFU),"PBMC [1]; Patient 1, peptide 50 μg/ml",27 SFU
same,significant SFU as a percentage of maximal peptide SFU,"PBMC [1]; Patient 1, peptide 50 μg/ml",(^: 5-10%)
same,IFN-γ ELISpot response (raw SFU),"PBMC [1]; Patient 2, peptide 50 μg/ml",159 SFU
same,significant SFU as a percentage of maximal peptide SFU,"PBMC [1]; Patient 2, peptide 50 μg/ml",*** (***: >70%)
same,IFN-γ ELISpot response (raw SFU),"PBMC [1]; Patient 3, peptide 50 μg/ml",7 SFU
"QPYPEQEQPILEEELLLQQQ [oats avenin peptide, CBL51491.1 (22-41) [Q28, Q33, Q34, Q35 to E]; one of two coded A01]",IFN-γ ELISpot response (raw SFU),Patient 2 TCC-01,275 SFU
same,IFN-γ ELISpot response (raw SFU),Patient 6 TCC-01,16 SFU
QYQPYPEQEQPILQQ [partially deamidated avenin peptide],patients in which the peptide was the most immunogenic,PBMC [2]; oats responders after 3-day oats challenge,5 patients
SEQYQPYPEQEQPFLQEQPL [avenin library peptide],IFN-γ ELISpot response (raw SFU),"PBMC [1]; Patient 1, peptide 50 μg/ml",122 SFU
same,significant SFU as a percentage of maximal peptide SFU,"PBMC [1]; Patient 1, peptide 50 μg/ml",* (*: 20-40%)
same,IFN-γ ELISpot response (raw SFU),"PBMC [1]; Patient 2, peptide 50 μg/ml",208 SFU
same,significant SFU as a percentage of maximal peptide SFU,"PBMC [1]; Patient 2, peptide 50 μg/ml",*** (***: >70%)
same,IFN-γ ELISpot response (raw SFU),"PBMC [1]; Patient 3, peptide 50 μg/ml",34 SFU
same,significant SFU as a percentage of maximal peptide SFU,"PBMC [1]; Patient 3, peptide 50 μg/ml",* (*: 20-40%)
"SEQYQPYPEQQEPFVQ [avenin peptide of Genbank Q09097.1, wild-type]",IFN-γ ELISpot response (raw SFU),"PBMC [2]; patient P1, peptide 1 μg/ml, after 3-day oats challenge",3 SFU
same,IFN-γ ELISpot response (raw SFU),"PBMC [2]; patient P1, peptide 10 μg/ml, after 3-day oats challenge",5 SFU
same,IFN-γ ELISpot response (raw SFU),"PBMC [2]; patient P1, peptide 100 μg/ml, after 3-day oats challenge",3 SFU
same,IFN-γ ELISpot response (raw SFU),"PBMC [2]; patient P2, peptide 1 μg/ml, after 3-day oats challenge",3 SFU
same,IFN-γ ELISpot response (raw SFU),"PBMC [2]; patient P2, peptide 10 μg/ml, after 3-day oats challenge",3 SFU
same,IFN-γ ELISpot response (raw SFU),PBMC [2]; [3],16 SFU
same,significant SFU as a percentage of maximal peptide SFU,PBMC [2]; [3],* (*: 20-40%)
same,IFN-γ ELISpot response (raw SFU),"PBMC [2]; patient P3, peptide 1 μg/ml, after 3-day oats challenge",8 SFU
same,IFN-γ ELISpot response (raw SFU),"PBMC [2]; patient P3, peptide 10 μg/ml, after 3-day oats challenge",9 SFU
same,IFN-γ ELISpot response (raw SFU),"PBMC [2]; patient P3, peptide 100 μg/ml, after 3-day oats challenge",4 SFU
same,IFN-γ ELISpot response (raw SFU),"PBMC [2]; patient P11, peptide 1 μg/ml, after 3-day oats challenge",0 SFU
same,IFN-γ ELISpot response (raw SFU),"PBMC [2]; patient P11, peptide 10 μg/ml, after 3-day oats challenge",0 SFU
same,IFN-γ ELISpot response (raw SFU),"PBMC [2]; patient P11, peptide 100 μg/ml, after 3-day oats challenge",0 SFU
same,IFN-γ ELISpot response (raw SFU),"PBMC [2]; patient P12, peptide 1 μg/ml, after 3-day oats challenge",1 SFU
same,IFN-γ ELISpot response (raw SFU),"PBMC [2]; patient P12, peptide 10 μg/ml, after 3-day oats challenge",3 SFU
same,IFN-γ ELISpot response (raw SFU),"PBMC [2]; patient P12, peptide 100 μg/ml, after 3-day oats challenge",0 SFU
same,IFN-γ ELISpot response (raw SFU),"PBMC [2]; patient P13, peptide 50 μg/ml, after 3-day oats challenge",9 SFU
